Results taken from paper PMC8979514 (Journal of Enzyme Inhibition and Medicinal Chemistry, 2022).
Read-outs that look alike come from different tables or passages of the source.

How the values were obtained:
[1] = in vitro; assay type: cell-based, human; details: human; MTT, 24 h incubation; read-out: Cytotoxicity on HepG2 cells IC50
Experimental: (§1) Human neuroblastoma SH-SY5Y and human liver hepatocellular HepG2 cell lines were purchased from the American Type Culture Collections (ATCC). SH-SY5Y cells were cultured in a Dulbecco’s Modified Eagle Medium (DMEM) supplemented with Ham F12 medium (ratio 1:1), whereas HepG2 cells in Eagle’s Minimum Essential Medium (EMEM). Additionally, all culture medium was supplemented with 10% foetal bovine serum (FBS), streptomycin (100 µg/mL) and penicillin (100 U/mL). The cells were seeded into flasks containing supplemented medium and maintained in a humidified atmosphere of 5% CO2 and 95% air at 37 °C. The cell viability assay was performed in confluence of the cells in serum free medium (without FBS) was 80–90%.
(§2) […]. SH-SY5Y cells and HepG2 cells were seeded on 96-well plate with a density of 27–29 × 10^3 cells/well and 12–14 × 10^3/well respectively. […]. The DMSO concentration of every well in final dilutions was equal to or less than 0.1%. After incubation with compounds, MTT was added and 2 h later, the absorbance was measured at 492 nm. The result was expressed as the percentage of control cells (cultured in serum-free medium containing 0.1% of DMSO) which was set to 100%. The MTT test was performed in three independent replications. Data analysis was performed by using GraphPad Prism 5.0 Software.
(§3) . HepG2 is a commonly used in vitro model for the investigation of hepatocytotoxic effect of xenobiotics [40]^,[41]. In our study, we evaluated the toxicity of our new analogs against […]. […]

[2] = target: T1, butyrylcholinesterase (BChE, E.C. 3.1.1.8) (Equus caballus, UniProt P81908); assay: biochemical; parameters: species or system equine serum; details: for IC50: BChE from equine serum
T1 construct: purchased Sigma Aldrich
T1 sequence (P81908 whole entry): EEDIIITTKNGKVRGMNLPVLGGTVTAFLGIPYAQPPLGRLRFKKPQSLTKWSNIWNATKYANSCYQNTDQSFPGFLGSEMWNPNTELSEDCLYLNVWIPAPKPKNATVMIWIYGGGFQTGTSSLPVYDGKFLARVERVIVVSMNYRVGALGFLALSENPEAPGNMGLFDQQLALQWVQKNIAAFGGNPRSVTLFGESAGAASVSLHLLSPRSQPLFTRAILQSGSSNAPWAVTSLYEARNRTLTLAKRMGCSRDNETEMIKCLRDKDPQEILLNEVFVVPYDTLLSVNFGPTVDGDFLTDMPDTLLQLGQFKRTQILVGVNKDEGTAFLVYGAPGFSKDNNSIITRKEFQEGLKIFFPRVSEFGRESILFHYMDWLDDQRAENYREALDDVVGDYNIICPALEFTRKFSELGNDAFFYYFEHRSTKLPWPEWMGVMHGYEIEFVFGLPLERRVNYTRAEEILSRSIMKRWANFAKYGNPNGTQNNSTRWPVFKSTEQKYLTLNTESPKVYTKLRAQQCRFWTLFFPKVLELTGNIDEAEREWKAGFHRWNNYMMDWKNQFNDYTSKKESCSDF
Experimental: (§4) [33] Inhibitory activity was tested at room temperature on 96-well plate using Ellman’s method. Lyophilised powders of AChE and BChE were dissolved in phosphate buffer (pH 7.5, 0.1 M) with 1% BSA.
(§5) Each well was filled to a total volume of 330 µL. The content inculded 285 µL of phosphate buffer, 5 µL 2 units/mL of eeAChE/BChE, 10 µL 0.01 M of DTNB, 10 µl of tested compound (for the control wells 10 µL of the phosphate buffer instead of tested compound) and 20 µL (7.5 mM) ATCh/BTCh. The hydrolysis of ATCh/BTCh was initiated by adding it to the well directly before the measurement. The absorbance was recorded at 1 min intervals for 8 min in total. The percent of inhibition was calculated by nonlinear regression analysis of the response–concentration (log) curve as a percentage of the reaction rate of the tested compounds over the control. Data analysis was performed by using GraphPad Prism 5.0 Software to give the IC50 values. The experiment was carried out in triplicate.

[3] = tested on: SH-SY5Y cells; assay: in vitro; assay type: cell-based, human; details: 100 µM, 24 h incubation, MTT, mean ± SD
Experimental: as §1, §2
(§6) SH-SY5Y a standard cell line used for determining neurocytotoxic effect of potential drug. Moreover it is well-established in vitro model of neurodegenerative disorders. […].

[4] = in vitro; assay type: cell-based, human; details: human, 24 h incubation, MTT, mean ± SD, read-out: Cells viability of SH-SY5Y cell line (% of control)
Experimental: as §1, §2, §6

[5] = target: T2, Acetylcholinesterase (eeAChE, E.C. 3.1.1.7) (Electrophorus electricus, UniProt O42275); assay: biochemical; assay type: biochemical, electric eel; details: for IC50: eeAChE; for Selectivity IC50(eeAChE)/ IC50(BChE): ratio of IC50 values
T2 construct: purchased Sigma Aldrich
T2 sequence (O42275 24-633): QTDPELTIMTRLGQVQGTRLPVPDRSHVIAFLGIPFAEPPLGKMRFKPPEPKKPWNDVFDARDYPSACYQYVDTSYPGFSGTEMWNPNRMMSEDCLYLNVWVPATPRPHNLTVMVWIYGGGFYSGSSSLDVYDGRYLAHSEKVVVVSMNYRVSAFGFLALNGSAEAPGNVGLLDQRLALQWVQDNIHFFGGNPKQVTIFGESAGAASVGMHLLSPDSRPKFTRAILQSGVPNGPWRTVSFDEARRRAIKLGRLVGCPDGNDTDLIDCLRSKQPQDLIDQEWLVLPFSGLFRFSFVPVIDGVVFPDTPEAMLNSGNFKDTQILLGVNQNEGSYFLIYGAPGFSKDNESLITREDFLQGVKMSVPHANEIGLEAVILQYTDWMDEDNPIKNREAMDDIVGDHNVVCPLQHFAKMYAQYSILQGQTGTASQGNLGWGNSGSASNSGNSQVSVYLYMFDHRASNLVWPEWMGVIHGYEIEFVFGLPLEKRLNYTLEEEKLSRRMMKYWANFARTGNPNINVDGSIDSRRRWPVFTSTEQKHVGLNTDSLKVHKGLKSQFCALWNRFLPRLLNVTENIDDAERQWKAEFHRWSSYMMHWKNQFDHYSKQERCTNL
Experimental: as §4, §5

[6] = tested on: HepG2 cells; assay: in vitro; assay type: cell-based, human; details: HepG2 cells
Experimental: as §1, §2, §3

[7] = Ellman's method, phosphate buffer pH 7.5, room temperature, read-out: IC50 BChE
[8] = value in brackets under the IC50, read-out: pIC50 ± S.E.M. BChE (converted)
[9] = Ellman's method, phosphate buffer pH 7.5, room temperature, read-out: IC50 AChE
[10] = value in brackets under the IC50, read-out: pIC50 ± S.E.M. AChE (converted)
[11] = IC50 BChE, Ellman's method, phosphate buffer pH 7.5, room temperature
[12] = pIC50 ± S.E.M. BChE, value in brackets under the IC50
[13] = IC50 AChE, Ellman's method, phosphate buffer pH 7.5, room temperature
[14] = pIC50 ± S.E.M. AChE, value in brackets under the IC50
[15] = from IC50 values, versus tacrine

| Structure (SMILES) | IC50 [1] | IC50 [2, 7] | IC50 [2, 8] | viability at 12.5 µM [4] | viability at 50 µM [4] | viability at 100 µM [4] | IC50 [5, 9] | IC50 [5, 10] | Selectivity IC50(eeAChE)/ IC50(BChE) [5] | IC50 at 24 h [1] | IC50 [2, 11] | IC50 [2, 12] | viability at 24 h, 12.5 µM [4] | viability at 24 h, 50 µM [4] | viability at 24 h, 100 µM [4] | IC50 [5, 13] | IC50 [5, 14] | other results |
| --- | --- | --- | --- | --- | --- | --- | --- | --- | --- | --- | --- | --- | --- | --- | --- | --- | --- | --- |
| CCOP(=O)(OCC)OCCCNc1c2c(nc3ccccc13)CCCC2 [Compound 16, Diethyl(3-((1,2,3,4-tetrahydroacridin-9-yl)amino)propyl)phosphate] | 114 µM | 17.1 nM | 17.1 nM | 88.1 ± 7.8% | 80 ± 7.7% | 83.5% | 246 nM | 245 nM | 14.36 |  |  |  |  |  |  |  |  | Cells viability of SH-SY5Y cell line (% of control) [3]: 83.47 ± 8.6 % of control |
| CCCCOP(=O)(OCCCC)OCCCNc1c2c(nc3ccccc13)CCCC2 [Compound 17, Dibutyl(3-((1,2,3,4-tetrahydroacridin-9-yl)amino)propyl)phosphate] |  |  |  |  |  |  |  |  | 3.78 | 72.3 µM | 29.1 nM | 29.1 nM | 94.4 ± 5.1% | 67.7 ± 14.7% | 63.2 ± 12.2% | 110 nM | 110 nM |  |
| CCOP(=O)(NCCCCCCNc1c2c(nc3ccccc13)CCCC2)OCC [Compound 6, Diethyl(6-((1,2,3,4-tetrahydroacridin-9-yl)amino)hexyl)phosphoramidate] |  |  |  |  |  |  |  |  | 4.82 | 140 µM | 6.75 nM | 6.76 nM | 74.3 ± 4.9% | 71.7 ± 7.2% | 67.5 ± 9% | 32.6 nM | 32.6 nM |  |
| CCOP(=O)(NCCCCCCCCNc1c2c(nc3ccccc13)CCCC2)OCC [Compound 8, Diethyl(8-((1,2,3,4-tetrahydroacridin-9-yl)amino)octyl)phosphoramidate] |  |  |  |  |  |  |  |  | 0.48 | 23.7 µM | 12.9 nM | 12.9 nM | 76.7 ± 5.8% | 51.6 ± 5.4% | 52.2 ± 1% | 6.11 nM | 6.11 nM | fold more potent than tacrine against AChE [5, 15]: 6 fold |
| CCOP(=O)(OCC)OCCNCCNc1c2c(nc3ccccc13)CCCC2 [Compound 19, Diethyl(2-((2-((1,2,3,4-tetrahydroacridin-9-yl)amino)ethyl)amino)ethyl)phosphate] | > 600 µM | 111 nM | 112 nM | 85.5 ± 12.6% | 82.6 ± 3.2% | 81.1% | 677 nM | 676 nM | 6.08 |  |  |  |  |  |  |  |  | hepatocytotoxicity in MTT assay (in words) [6]: lack of hepatocytotoxicity; Cells viability of SH-SY5Y cell line (% of control) [3]: 81.12 ± 5.0 % of control |
| O=P(OCCNCCNc1c2c(nc3ccccc13)CCCC2)(Oc1ccccc1)Oc1ccccc1 [Compound 21, Diphenyl(2-((2-((1,2,3,4-tetrahydroacridin-9-yl)amino)ethyl)amino)ethyl)phosphate] |  |  |  |  |  |  |  |  | 12.22 |  | 41 nM | 41 nM | 52.3 ± 5% | 42.7 ± 6.4% | 30.7 ± 1.5% | 501 nM | 501 nM |  |
| O=P(NCCCCCCCCNc1c2c(nc3ccccc13)CCCC2)(Oc1ccccc1)Oc1ccccc1 [Compound 10, Diphenyl(8-((1,2,3,4-tetrahydroacridin-9-yl)amino)octyl)phosphoramidate] | 7.15 µM | 188 nM | 188 nM | 80.1 ± 16.8% | 63.7 ± 5.7% | 48.1 ± 8.1% | 44.2 nM | 44.3 nM | 0.24 |  |  |  |  |  |  |  |  |  |
| CCOP(=O)(NCCCCCCCCCCCCNc1c2c(nc3ccccc13)CCCC2)OCC [Compound 11, Diethyl(12-((1,2,3,4-tetrahydroacridin-9-yl)amino)dodecyl)phosphoramidate] | 0.05 µM | 65.5 nM | 65.5 nM | 35.4 ± 4.6% | 35.5 ± 4.1% | 31.1 ± 6.4% | 33.3 nM | 33.3 nM | 0.51 |  |  |  |  |  |  |  |  |  |
| CCCCOP(=O)(NCCCCCCCCNc1c2c(nc3ccccc13)CCCC2)OCCCC [Compound 9, Dibutyl(8-((1,2,3,4-tetrahydroacridin-9-yl)amino)octyl)phosphoramidate] |  |  |  |  |  |  |  |  | 0.2 | 43.3 µM | 41.5 nM | 41.5 nM | 77.5 ± 13.5% | 55.7 ± 11.5% | 54.6 ± 8.4% | 8.18 nM | 8.18 nM |  |
| O=P(OCCCNc1c2c(nc3ccccc13)CCCC2)(Oc1ccccc1)Oc1ccccc1 [Compound 18, Diphenyl(3-((1,2,3,4-tetrahydroacridin-9-yl)amino)propyl)phosphate] |  |  |  |  |  |  |  |  | 1.55 | 53.8 µM | 37.7 nM |  | 79.5 ± 7.4% | 71.2 ± 20.5% | 59 ± 20.3% | 58.6 nM | 58.6 nM |  |
| CCCCOP(=O)(NCCCCCCCCCCCCNc1c2c(nc3ccccc13)CCCC2)OCCCC [Compound 12, Dibutyl(12-((1,2,3,4-tetrahydroacridin-9-yl)amino)dodecyl)phosphoramidate] |  |  |  |  |  |  |  |  | 0.27 | 20.8 µM | 61.2 nM | 61.2 nM | 69.3 ± 3.7% | 52.1 ± 3.1% | 53.5 ± 5.8% | 16.3 nM | 16.3 nM |  |
| O=P(NCCCCCCNc1c2c(nc3ccccc13)CCCC2)(Oc1ccccc1)Oc1ccccc1 [Compound 7, Diphenyl(6-((1,2,3,4-tetrahydroacridin-9-yl)amino)hexyl)phosphoramidate] | 14.6 µM | 41.1 nM | 41.1 nM | 47.4 ± 1.2% | 41.3 ± 1.5% | 30.1 ± 5% | 125 nM | 125 nM | 3.04 |  |  |  |  |  |  |  |  |  |
| O=P(NCCCCCCCCCCCCNc1c2c(nc3ccccc13)CCCC2)(Oc1ccccc1)Oc1ccccc1 [Compound 13, Diphenyl(12-((1,2,3,4-tetrahydroacridin-9-yl)amino)dodecyl)phosphoramidate] |  |  |  |  |  |  |  |  | 5.06 |  | 1.97 nM | 1.97 nM | 40.4 ± 7.6% | 38.4 ± 7.6% | 38 ± 3.8% | 9.96 nM | 9.95 nM | fold more potent than tacrine against BChE [2, 15]: 12 fold |
| CCCCOP(=O)(OCCCC)OCCNCCNc1c2c(nc3ccccc13)CCCC2 [Compound 20, Dibutyl(2-((2-((1,2,3,4-tetrahydroacridin-9-yl)amino)ethyl)amino)ethyl)phosphate] |  |  |  |  |  |  |  |  | 0.44 | 134 µM | 186 nM |  | 78.9 ± 8.6% | 79.7 ± 1.1% | 68.6 ± 14.5% | 81.6 nM | 81.5 nM |  |
